ChEMBL document CHEMBL4610080, “Natural Products as Sources of New Drugs over the Nearly Four Decades from 01/1981 to 09/2019” (2020)

Tests used:
Format in all cases: functional
[1] = tested on: Mycobacterium tuberculosis; test: Antibacterial activity against Mycobacterium tuberculosis assessed as reduction in microbial growth
Enterococcus = test: Antibacterial activity against vancomycin-resistant Enterococcus assessed as reduction in microbial growth
Staphylococcus aureus = test: Antibacterial activity against Staphylococcus aureus NCTC 8325 assessed as reduction in microbial growth

| Structure (SMILES) | MIC [1] [µg/mL] | MIC (Enterococcus) [µg/mL] | MIC (Staphylococcus aureus) [µg/mL] |
| --- | --- | --- | --- |
| O=C(Nc1ccc2c(c1)OC(F)(F)O2)Nc1ccc(Cl)c(C(F)(F)F)c1 | 0.93 | 1 | 0.18 |
| CC(=O)NC[C@H]1CN(c2ccc(N3CCOCC3)c(F)c2)C(=O)O1 [LINEZOLID] |  |  | 1 |
| CN[C@H](CC(C)C)C(=O)N[C@H]1C(=O)N[C@@H](CC(N)=O)C(=O)N[C@H]2C(=O)N[C@H]3C(=O)N[C@H](C(=O)N[C@H](C(=O)O)c4cc(O)cc(O)c4-c4cc3ccc4O)[C@H](O)c3ccc(c(Cl)c3)Oc3cc2cc(c3O[C@@H]2O[C@H](CO)[C@@H](O)[C@H](O)[C@H]2O[C@H]2C[C@](C)(N)[C@H](O)[C@H](C)O2)Oc2ccc(cc2Cl)[C@H]1O [VANCOMYCIN] |  |  | 1.4 |
